Laboratory results as given in patent US6821751B2, “Hypoxia responsive transcription enhancer element from yeast” (The Brigham and Women's Hospital, Inc., priority 2001, dated 2004).

Key:
[1] = system: S. cerevisiae; assay type: cell-based; conditions: any of the concentrations tested
Procedure: (§1) Yeast cells containing lacZ fusion plasmids were grown at 30° C. on uracil dropout medium containing dextrose (Treco, et al., In Current Protocols in Molecular Biology, Ausubel, et al., eds., pp. 13.2.1-13.2.12, John Wiley & Sons, New York (1997)). For unsaturated fatty acid repression analysis, yeast were grown in medium supplemented with 1% tergitol as described previously (Choi, et al., J. Biol. Chem. 271:3581-3589 (1996)). Cells were grown in the presence of UFAs for 6 hours prior to the β-galactosidase assays. Plasmid amplifications and bacterial transformations were performed using Escherichia coli strain DH5 (Invitrogene Corp.). Yeast transformations were performed by the method of Elble (BioTechniques 13:18-20 (1992)). Preparative cultures were grown aerobically in a shaker at 200 rpm (Innova 4000 incubator shaker, New Brunswick Scientific. NJ) at 30° C. to mid-logarithmic phase. For experiments assessing yeast under hypoxic conditions, mid-logarithmic phase preparative cultures were used to inoculate special air-tight flasks with inlet and outlet ports to allow for equilibration with the appropriate gas mixtures. […] Growth was monitored by measuring the yeast OD600 at the completion of each experiment.

[2] = system: OLE1 promoter-lacZ fusion; assay: β-galactosidase assay of OLE1 promoter-lacZ fusion reporter (p62::934 and pAM4); assay type: cell-based, S. cerevisiae
Procedure: (§2) The construction of several of the OLE1 promoter-lacZ fusion deletion series has been described previously (Choi, et al., J. Biol. Chem. 271:3581-3589 (1996)). Construction of pAM6, pAM7, pAM10 and pAM16 vectors containing the OLE1 low oxygen response element (LORE) sequences −347 to −328 relative to the ATG translational start codon with the A of the codon designated as +1) was performed by inserting the synthetic paired oligonucleotides (10-5′ and 10-3′) into the XhoI restriction site of pTBA30, the CYC1 basal promoter-lacZ fusion vector. pAM16 contains one LORE copy in the −347 to −328 forward or (+) orientation 5′ to the basal CYC1 promoter-lacZ fusion. pAM7 has one LORE copy in the −328 to −347 reverse or (+) orientation. pAM6 contains a tandem repeat of the LORE in the (+) orientation. pAM10 was generated by inserting the synthetic paired oligonucleotides (yd-19 and yd-20) into the XhoI restriction site of pTBA30. The LORE in this plasmid has three mutations. Plasmid pAM4 is the p62::934 derivative with three nucleotide substitutions in the LORE region (-C342T, -T341A and -A339G) prepared utilizing three step PCR with oligonucleotides containing site-directed mutations. Two PCR reactions with appropriate pairs of mutant primers (PCR1 : yd-8 and yd-20 and PCR2: yd-19 and lacZ-3′) and Taq DNA polymerase were carried out as recommended by Roche Molecular Biochemicals (IN) in 100 μl reactions, using 1 ng of p62::934 as a template in a PTC-100 thermal cycler for 30 cycles (1 min at 94° C., 1 min at 55° C., 1 min at 72° C.), followed by 7 min at 72° C. The PCR products were purified from a 1.0% agarose gel using a Qiaex DNA extraction kit (Qiagen, Calif.). Then, PCR products 1 and 2 were annealed and amplified as above with primer yd-8 and lacZ-3′. The resulting PCR products were purified as above and digested with restriction enzymes HindIII and SalI. Finally this PCR product was cloned into HindIII and SalI pretreated p62::934 plasmid to generate pAM4. All the constructs were verified by DNA sequencing. The promoter deletion constructs were transformed into wild-type strain RZ53-6 for subsequent β-galactosidase assays.
Yeast cells containing lacZ fusion plasmids were grown at 30° C. on uracil dropout medium containing dextrose (Treco, et al., In Current Protocols in Molecular Biology, Ausubel, et al., eds., pp. 13.2.1-13.2.12, John Wiley & Sons, New York (1997)). For unsaturated fatty acid repression analysis, yeast were grown in medium supplemented with 1% tergitol as described previously (Choi, et al., J. Biol. Chem. 271:3581-3589 (1996)). Cells were grown in the presence of UFAs for 6 hours prior to the β-galactosidase assays. Plasmid amplifications and bacterial transformations were performed using Escherichia coli strain DH5 (Invitrogene Corp.). […]

[3] = system: OLE1 mRNA; assay: Northern blot analysis of OLE1 mRNA; assay type: cell-based, S. cerevisiae; conditions: for levels of OLE1 mRNA after transition metal in normoxia: increasing concentrations
Procedure: as §1, with “mixtures. Cultures were exposed to a continuous flow of hydrated medical grade nitrogen (BOC Gases, MA), unless otherwise specified, for 6 hours after inoculating the medium via the inlet port. Of note, medical grade nitrogen is contaminated with trace amounts of O2 (less than 1%). The percentage of saturated O2 in each flask was confirmed by using an oxygen monitor (G. C. Industries, Inc.) attached to the outlet port of each culture.” for “mixtures.”
(§3) Total yeast RNA was isolated as described previously (Collart, et al., In Current Protocols in Molecular Biology, Ausubel, et al., pp. 13.12.1-13.12.5, John Wiley & Sons, New York (1997)). Equal amounts (15 μg) of total RNA were analyzed by Northern blots according to standard procedures for separation of RNA using 1% formaldehyde gels (Collart, et al., In Current Protocols in Molecular Biology, Ausubel, et al., eds, pp. 13.12.1-13.12.5, John Wiley & Sons, New York (1997)). […] Northern blots were quantified using a phosphorimager (Molecular Dynamics) and autoradiographs were also prepared on X-OMAT AR film (Kodak, NY).
For the detection of OLE1 mRNA, a radiolabeled DNA probe was made using a 0.5 kb EcoRI fragment from the OLE1 protein coding sequence. […] The purified DNA fragments were labeled to high specific activity with [^32P]dCTP by the random primer extension method using Ready to Go DNA labeling beads (Amersham Pharmaceutical Biotech) reaction kit. […] Specific activity of labeled probes was determined by liquid scintillation counting.

[4] = system: ATF1; assay: Northern blot analysis of ATF1 mRNA; assay type: cell-based, S. cerevisiae
Procedure: (§4) Yeast cells containing lacZ fusion plasmids were grown at 30° C. on uracil dropout medium containing dextrose (Treco, et al., In Current Protocols in Molecular Biology, Ausubel, et al., eds., pp. 13.2.1-13.2.12, John Wiley & Sons, New York (1997)). For unsaturated fatty acid repression analysis, yeast were grown in medium supplemented with 1% tergitol as described previously (Choi, et al., J. Biol. Chem. 271:3581-3589 (1996)). Cells were grown in the presence of UFAs for 6 hours prior to the β-galactosidase assays. Plasmid amplifications and bacterial transformations were performed using Escherichia coli strain DH5 (Invitrogene Corp.). […] Growth was monitored by measuring the yeast OD600 at the completion of each experiment.
as §3, with “NY). […]” for “NY).”

[5] = system: ANB1; assay: Expression of anaerobic yeast gene ANB1; assay type: cell-based, S. cerevisiae
[6] = system: SUT1; assay: Northern blot analysis of SUT1 expression; assay type: cell-based, S. cerevisiae
Procedure: as §4
as §3, with “NY). […]” for “NY).”

[7] = system: TRX2 mRNA; assay: Northern blot analysis of TRX2 mRNA; assay type: cell-based, S. cerevisiae
Procedure: as §4
as §3, with “NY). […]” for “NY).”

[8] = system: LORE-basal CYC1 promoter-lacZ; assay: microbe, parasite or virus in culture; assay type: cell-based, S. cerevisiae
Procedure: as §2, with “The promoter deletion constructs were transformed into wild-type strain RZ53-6 for subsequent β-galactosidase assays.” left out

[9] = system: LORE binding factor(s); assay: Electrophoretic mobility shift assay (EMSA) with crude yeast extracts; design: species or system S. cerevisiae
Procedure: Haploid yeast (S. cerevisiae, strain RZ53-6 ) were cultured in 1-liter flasks containing 200 ml of YPD (1% yeast extract, 2% peptone, 2% dextrose) either under normoxic or hypoxic conditions, harvested at midlog phase (OD600=0.8), and lysed by vortexing with glass beads according to published protocols (Pfeifer, et al., Cell 49:9-18 (1987)). Following addition of ammonium sulfate to 40% and incubation on a rocker table at 4° C. for 30 minutes, the precipitate was collected by centrifugation at 14,000 rpm in a microfuge at 4° C. for 10 minutes. The pellet was resuspended in storage buffer (20 mM HEPES, pH8.0; 5 mM EDTA; 20% (v/v) glycerol; 1 mM PMSF; 7 mM β-mercaptoethanol) and stored frozen at −80° C. The soluble protein concentration was determined using a Bradford dye binding assay (BioRad, CA).
EMSAs were performed essentially as described by Carey (Carey, Methods Enzymol. 208:103-117 (1991)) utilizing synthetic paired oligonucleotides (e.g., 10-5′ and 10-3′) as a probe or a probe containing the LORE sequence made by PCR using p62::934 as the template with ^32P-labeled oligonucleotides 1-5′ and yd-10 (−397 to −234) as the primers. […] The concentration of each probe was determined on an ethidium bromide stained agarose-mini gel (Maniatis, et al., Molecular Cloning: A Laboratory Manual, Cold Spring Harbor Laboratory Press, Cold Spring Harbor, N.Y. (1982)). […]

## c1cnc2c(c1)ccc1cccnc12 [1,10 Ph, 1,10-phenanthroline]
[1]
  cell growth: unaffected
[2]; 6 hours of incubation, 2-8 μg/ml
  gene expression after incubation with chelator: substantially increase
[2]; exposure for six hours
  expression of OLE1 by OLE1 promoter-lacZ reporter: dose dependent increase
[3]; exposure for six hours
  expression of OLE1 by Northern blot: dose dependent increase

## [Cl][Co][Cl] [CoCl2, cobalt chloride]
[2]; reporter p62::934, strain RZ53-6 Δrox1
  induction of reporter under cobalt-treated conditions in ROX1 deletion strain: 5.1 fold increase
[2]; reporter pAM4 (mutated LORE)
  CoCl2 dependent induction by reporter assay: not affected
[4]
  induction of ATF1 by cobalt treatment: induced
[3]
  levels of OLE1 mRNA after transition metal in normoxia: increased levels
[5]
  expression of ANB1 with cobalt: not upregulated
[6]
  induction of SUT1 expression by cobalt: no significant induction
[7]
  cobalt induction of TRX2 mRNA: ~2.5 fold
[8]; plasmid pAM6
  increase of reporter gene expression under cobalt-treated conditions: ~10 fold

## [Cl][Ni][Cl] [NiCl2, nickel chloride]
[3]
  levels of OLE1 mRNA after transition metal in normoxia: increased levels

## CCCCC/C=C\C/C=C\CCCCCCCC(=O)O [linoleic acid]
[3]; Northern blot
  OLE1 mRNA level after unsaturated fatty acid: dramatically repressed
[9]; crude extracts from L.A.-treated yeast
  hypoxia-induced LORE complex formation (B1): significantly suppressed
[8]; Saccharomyces cerevisiae, reporter pAM6 (two copies of LORE in tandem), UFA for 6 hours, read-out: IC50 of inhibition of lacZ reporter plasmid pAM6 expression
  IC50: ~20 µM
[8]; normoxia-, hypoxia- and cobalt-induced expression, pAM6
  repression / dose-response inhibition of lacZ reporter pAM6 expression: strongly repress

## #8: paired oligonucleotides -387 to -368 of OLE1 promoter (SEQ ID NO:44/45) (chain 1 AGGTCTCTTCGCATAGTCG; chain 2 CGACTATGCGAAGAGAACCT; chemistry not given here)
[9]; crude extracts from hypoxia and cobalt treated yeast
  hypoxia- or CoCl2-induced complex formation with end-labeled probe: No specific hypoxia- or CoCl2-induced complex formation
